Test results as given in PubChem BioAssay AID1963864 (Molecular Pharmacology Branch, DTP, NCI, 2024).

Tested on: KRAS PDC multicell spheroid viability
Experiment: Anticancer human tumor 521955-158-R6-J3-PDC patient-derived pancreatic carcinoma cell line growth inhibition [KRAS2]
Settings: for IC50: curve of first compound; for viability, T/C: stronger effect = lower value
Method in brief: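 KRAS-mutant tumor cells were grown as spheroids with HUVEC endothelial cells and human MSCs as stroma. Targeted agents were tested alone and with KRAS pathway inhibitors. Doses started at or near clinical Cmax, or 10 microM, descending half-log.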

[1] = second compound 0.1 µM, first compound 0.01 µM
[2] = second compound 0.1 µM, first compound 0.0316 µM
[3] = second compound 0.1 µM, first compound 0.1 µM
[4] = second compound 0.1 µM, first compound 0.316 µM
[5] = second compound 0.1 µM, first compound 1 µM
[6] = second compound 0.1 µM, first compound 3.16 µM
[7] = second compound 0.316 µM, first compound 0.01 µM
[8] = second compound 0.316 µM, first compound 0.0316 µM
[9] = second compound 0.316 µM, first compound 0.1 µM
[10] = second compound 0.316 µM, first compound 0.316 µM
[11] = second compound 0.316 µM, first compound 1 µM
[12] = second compound 0.316 µM, first compound 3.16 µM
[13] = second compound 1 µM, first compound 0.01 µM
[14] = second compound 1 µM, first compound 0.0316 µM
[15] = second compound 1 µM, first compound 0.1 µM
[16] = second compound 1 µM, first compound 0.316 µM
[17] = second compound 1 µM, first compound 1 µM
[18] = second compound 1 µM, first compound 3.16 µM
[19] = second compound 3.16 µM, first compound 0.01 µM
[20] = second compound 3.16 µM, first compound 0.0316 µM
[21] = second compound 3.16 µM, first compound 0.1 µM
[22] = second compound 3.16 µM, first compound 0.316 µM
[23] = second compound 3.16 µM, first compound 1 µM
[24] = second compound 3.16 µM, first compound 3.16 µM
[25] = second compound 10 µM, first compound 0.01 µM
[26] = second compound 10 µM, first compound 0.0316 µM
[27] = second compound 10 µM, first compound 0.1 µM
[28] = second compound 10 µM, first compound 0.316 µM
[29] = second compound 10 µM, first compound 1 µM
[30] = second compound 10 µM, first compound 3.16 µM
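Also: drug exposure lasted seven days.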
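For viability, T/C in this document: 100% = DMSO vehicle wells and lower means fewer viable cells.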

CC1COCCN1c1cc(-c2ccnn2C)c2ccnc(-c3ccn[nH]3)c2n1 (stereo not given) + CNCc1ccccc1-c1csc(C(C)Nc2nc(C)nc3cc(OC)c(OC)cc23)c1
IC50 (second compound 0.1 µM): > 3.16 µM | IC50 (second compound 0.316 µM): > 3.16 µM | IC50 (second compound 1 µM): > 3.16 µM | IC50 (second compound 3.16 µM): < 0.01 µM | IC50 (second compound 10 µM): < 0.01 µM | viability, T/C [1]: 83.9% | viability, T/C [2]: 90.4% | viability, T/C [3]: 80.4% | viability, T/C [4]: 76.2% | viability, T/C [5]: 64.4% | viability, T/C [6]: 81.2% | viability, T/C [7]: 79.5% | viability, T/C [8]: 70.4% | viability, T/C [9]: 71% | viability, T/C [10]: 57.9% | viability, T/C [11]: 69.3% | viability, T/C [12]: 68.4% | viability, T/C [13]: 68.6% | viability, T/C [14]: 63.3% | viability, T/C [15]: 58.1% | viability, T/C [16]: 47.3% | viability, T/C [17]: 55.1% | viability, T/C [18]: 63.7% | viability, T/C [19]: 0.45% | viability, T/C [20]: 0.29% | viability, T/C [21]: 1.4% | viability, T/C [22]: 0.26% | viability, T/C [23]: 0.42% | viability, T/C [24]: 0.43% | viability, T/C [25]: 0.19% | viability, T/C [26]: 0.19% | viability, T/C [27]: 0.21% | viability, T/C [28]: 0.16% | viability, T/C [29]: 0.17% | viability, T/C [30]: 0.3%

CC1OCC2(CCN(c3cnc(Sc4ccnc(N)c4Cl)c(N)n3)CC2)C1N (stereo not given) + CNCc1ccccc1-c1csc(C(C)Nc2nc(C)nc3cc(OC)c(OC)cc23)c1
IC50 (second compound 0.1 µM): > 10 µM | IC50 (second compound 0.316 µM): > 10 µM | IC50 (second compound 1 µM): > 10 µM | IC50 (second compound 3.16 µM): < 0.0316 µM | IC50 (second compound 10 µM): < 0.0316 µM | viability, T/C [2]: 83.1% | viability, T/C [3]: 73.2% | viability, T/C [4]: 73.5% | viability, T/C [5]: 81.8% | viability, T/C [6]: 105% | viability, T/C (second compound 0.1 µM, first compound 10 µM): 100% | viability, T/C [8]: 83.7% | viability, T/C [9]: 80.3% | viability, T/C [10]: 70% | viability, T/C [11]: 72.7% | viability, T/C [12]: 92.2% | viability, T/C (second compound 0.316 µM, first compound 10 µM): 105% | viability, T/C [14]: 67.3% | viability, T/C [15]: 67% | viability, T/C [16]: 66.5% | viability, T/C [17]: 72% | viability, T/C [18]: 90% | viability, T/C (second compound 1 µM, first compound 10 µM): 67.3% | viability, T/C [20]: 0.42% | viability, T/C [21]: 0.24% | viability, T/C [22]: 0.25% | viability, T/C [23]: 0.33% | viability, T/C [24]: 1.07% | viability, T/C (second compound 3.16 µM, first compound 10 µM): 0.41% | viability, T/C [26]: 0.23% | viability, T/C [27]: 0.26% | viability, T/C [28]: 0.26% | viability, T/C [29]: 0.17% | viability, T/C [30]: 0.22% | viability, T/C (second compound 10 µM, first compound 10 µM): 0.27%

CC(=O)OC12COC1CC(O)C1(C)C(=O)C(O)C3=C(C)C(OC(=O)C(O)C(NC(=O)OC(C)(C)C)c4ccccc4)CC(O)(C(OC(=O)c4ccccc4)C21)C3(C)C (stereo not given) + COc1cc2nc(C)nc(NC(C)c3cc(N)cc(C(F)(F)F)c3)c2cc1OC1CCOC1
IC50 (second compound 0.1 µM): > 3.16 µM | IC50 (second compound 0.316 µM): > 3.16 µM | IC50 (second compound 1 µM): > 3.16 µM | IC50 (second compound 3.16 µM): > 3.16 µM | IC50 (second compound 10 µM): > 3.16 µM | viability, T/C [1]: 78.7% | viability, T/C [2]: 74.6% | viability, T/C [3]: 69.7% | viability, T/C [4]: 77.8% | viability, T/C [5]: 85.7% | viability, T/C [6]: 114% | viability, T/C [7]: 66.3% | viability, T/C [8]: 66.5% | viability, T/C [9]: 70.2% | viability, T/C [10]: 60.3% | viability, T/C [11]: 90.7% | viability, T/C [12]: 117% | viability, T/C [13]: 75.6% | viability, T/C [14]: 67.3% | viability, T/C [15]: 66.5% | viability, T/C [16]: 78.5% | viability, T/C [17]: 86.2% | viability, T/C [18]: 106% | viability, T/C [19]: 52.6% | viability, T/C [20]: 61.3% | viability, T/C [21]: 55.7% | viability, T/C [22]: 70% | viability, T/C [23]: 111% | viability, T/C [24]: 120% | viability, T/C [25]: 68.5% | viability, T/C [26]: 62.2% | viability, T/C [27]: 72.6% | viability, T/C [28]: 84.6% | viability, T/C [29]: 102% | viability, T/C [30]: 120%
